ChEMBL document CHEMBL5096232, “Exploring the NCS-382 Scaffold for CaMKIIα Modulation: Synthesis, Biochemical Pharmacology, and Biophysical Characterization of Ph-HTBA as a Novel High-Affinity Brain-Penetrant Stabilizer of the CaMKIIα Hub Domain” (J Med Chem, 2022)
The source made the active and inactive calls. No cut-off for these calls is given here.

Experiments:
[1] = Metabolic stability in human liver microsomes assessed as intrinsic clearance per mg of protein at 0.5 uM incubated in presence of NADPH regenerating system and measured for 45 mins by LC-MS/MS analysis; assay type: ADME, Microsome; settings: read-out: CLH
[2] = Metabolic stability in mouse liver microsomes assessed as intrinsic clearance per mg of protein at 0.5 uM incubated in presence of NADPH regenerating system and measured for 45 mins by LC-MS/MS analysis; assay type: ADME, Microsome; settings: read-out: CLH
[3] = Metabolic stability in human hepatocytes assessed as intrinsic clearance per 10^6 cells at 0.5 uM incubated in presence of NADPH regenerating system and measured for 120 mins by LC-MS/MS analysis; assay type: ADME, cell-based, Hepatocyte; settings: read-out: CLH
[4] = Metabolic stability in mouse hepatocytes assessed as intrinsic clearance per 10^6 cells at 0.5 uM incubated in presence of NADPH regenerating system and measured for 120 mins by LC-MS/MS analysis; assay type: ADME, cell-based, Hepatocyte; settings: read-out: CLH
[5] = Drug concentration in C57BL/6J mouse brain at 10 mg/kg, po by HPLC-MS/MS analysis; assay type: ADME, organism-based; settings: in vivo
[6] = Drug concentration in C57BL/6J mouse plasma at 10 mg/kg, po by HPLC-MS/MS analysis; assay type: ADME, organism-based; settings: in vivo
[7] = Ratio of drug concentration in brain to plasma in C57BL/6J mouse at 10 mg/kg, po measured at 30 mins by HPLC-MS/MS analysis; assay type: ADME, organism-based; settings: read-out: BPR
[8] = Unbound brain-to-plasma partition coefficient in C57BL/6J mouse at 10 mg/kg, po measured at 30 mins by HPLC-MS/MS analysis; assay type: ADME, organism-based; settings: read-out: K(p,uu,brain)
BCRP [9] = test: Apparent permeability across apical to basolateral side in MDCK-II-BCRP cells at 3 uM measured after 60 to 90 mins by LC-MS/MS analysis; assay type: ADME, cell-based, Canis lupus familiaris; settings: dog, time 60-90 min
BCRP [10] = test: Apparent permeability across basolateral to apical side in MDCK-II-BCRP cells at 3 uM measured after 60 to 90 mins by LC-MS/MS analysis; assay type: ADME, cell-based, Canis lupus familiaris; settings: dog, time 60-90 min
MDR1 (P-gp) [11] = test: Apparent permeability across apical to basolateral side in MDCKII-MDR1 cells at 3 uM measured after 60 to 90 mins by LC-MS/MS analysis; assay type: ADME, cell-based, Canis lupus familiaris; settings: dog, MDCK-MDR1, time 60-90 min
MDR1 (P-gp) [12] = test: Apparent permeability across basolateral to apical side in MDCKII-MDR1 cells at 3 uM measured after 60 to 90 mins by LC-MS/MS analysis; assay type: ADME, cell-based, Canis lupus familiaris; settings: dog, MDCK-MDR1, time 60-90 min
BCRP [13] = test: Apparent permeability across apical to basolateral side in MDCK-II-BCRP cells at 3 uM preincubated with BCRP inhibitor, Ko 143 for 15 to 30 mins followed by compound addition and measured after 60 to 90 mins by LC-MS/MS analysis; assay type: ADME, cell-based, Canis lupus familiaris; settings: dog, with Ko 143 (BCRP inhibitor; concentration not stated), time 60-90 min
BCRP [14] = test: Apparent permeability across basolateral to apical side in MDCK-II-BCRP cells at 3 uM preincubated with BCRP inhibitor, Ko 143 for 15 to 30 mins followed by compound addition and measured after 60 to 90 mins by LC-MS/MS analysis; assay type: ADME, cell-based, Canis lupus familiaris; settings: dog, with Ko 143 (BCRP inhibitor; concentration not stated), time 60-90 min
MDR1 (P-gp) [15] = test: Apparent permeability across apical to basolateral side in MDCKII-MDR1 cells at 3 uM preincubated with P-gp/BCRP transporter dual inhibitor, elacridar for 15 to 30 mins followed by compound addition and measured after 60 to 90 mins by LC-MS/MS analysis; assay type: ADME, cell-based, Canis lupus familiaris, MDCK-MDR1; settings: dog, time 60-90 min
MDR1 (P-gp) [16] = test: Apparent permeability across basolateral to apical side in MDCKII-MDR1 cells at 3 uM preincubated with P-gp/BCRP transporter dual inhibitor, elacridar for 15 to 30 mins followed by compound addition and measured after 60 to 90 mins by LC-MS/MS analysis; assay type: ADME, cell-based, Canis lupus familiaris, MDCK-MDR1; settings: dog, time 60-90 min
[17] = Half life in ip dosed mouse; assay type: ADME, organism-based; settings: in vivo
[18] = target: T1, Calcium/calmodulin-dependent protein kinase type II subunit alpha (Rattus norvegicus, UniProt P11275); test: Displacement of [3H]NCS-382 from CaMK2alpha in rat brain cortical membrane homogenates measured after 1 hr by TopCount scintillation counting method; assay type: cell membranes, Cortex
T1 sequence (P11275 whole entry): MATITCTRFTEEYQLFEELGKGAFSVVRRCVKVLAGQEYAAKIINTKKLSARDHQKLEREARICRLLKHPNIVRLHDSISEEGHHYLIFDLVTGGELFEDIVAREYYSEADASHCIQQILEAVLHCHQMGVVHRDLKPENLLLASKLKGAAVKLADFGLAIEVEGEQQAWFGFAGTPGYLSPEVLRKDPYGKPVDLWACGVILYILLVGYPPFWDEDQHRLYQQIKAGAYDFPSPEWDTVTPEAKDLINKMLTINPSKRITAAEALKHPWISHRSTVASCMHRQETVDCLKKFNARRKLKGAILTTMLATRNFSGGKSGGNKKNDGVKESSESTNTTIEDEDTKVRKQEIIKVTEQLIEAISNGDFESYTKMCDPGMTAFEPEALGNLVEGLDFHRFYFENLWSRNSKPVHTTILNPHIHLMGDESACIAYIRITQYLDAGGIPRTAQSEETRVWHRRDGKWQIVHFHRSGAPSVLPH

[19] = target: T1, Calcium/calmodulin-dependent protein kinase type II subunit alpha; test: Displacement of [3H]HOCPCA from native CaMK2alpha in rat brain cortical membrane homogenates measured after 1 hr by TopCount scintillation counting method; assay type: cell membranes, Cortex
[20] = target: T1, Calcium/calmodulin-dependent protein kinase type II subunit alpha; test: Displacement of [3H]HOCPCA from recombinant rat CaMK2alpha expressed in HEK293T cells measured after 1 hr by liquid scintillation counting method; assay type: cell-based
[21] = target: T2, Calcium/calmodulin-dependent protein kinase type II subunit alpha (Homo sapiens, UniProt Q9UQM7); test: Binding affinity to recombinant human CaMK2alpha 6x hub domain (345 to 475 residues) expressed in Escherichia coli BL21 DE3 assessed as dissociation constant by surface plasmon resonance assay
T2 sequence (Q9UQM7 whole entry, the tested form may be a part): as the sequence (P11275 whole entry) above, with N324S counted along it

[22] = target: T2, Calcium/calmodulin-dependent protein kinase type II subunit alpha; test: Binding affinity to recombinant human CaMK2alpha 6x hub domain (345 to 475 residues) expressed in Escherichia coli BL21 DE3 assessed as thermal stability by measuring change in melting temperature at 5 to 1280 uM by SYPRO orange dye based differential scanning fluorimetry; settings: dose 5-1280 µM
[23] = target: T2, Calcium/calmodulin-dependent protein kinase type II subunit alpha; settings: filed as modulator
Description: Binding affinity to recombinant human CaMK2alpha 6x hub domain (345 to 475 residues) expressed in Escherichia coli BL21 DE3 assessed as dissociation rate constant by surface plasmon resonance assay

[24] = target: T2, Calcium/calmodulin-dependent protein kinase type II subunit alpha; test: Binding affinity to recombinant human CaMK2alpha 6x hub domain (345 to 475 residues) Trp403 residue assessed as quenching of intrinsic tryptophan fluorescence at 9.8 to 29 uM by Trp flip assay; settings: filed as modulator, dose 9.8-29 µM

For `O=C([O-])/C=C1\CCCc2cc(-c3ccccc3)ccc2C1O.[Na+]` (stereo unspecified), the microsomal CLint at 0.5 µM [1] was > 9.9 µL/min/mg, the microsomal CLint at 0.5 µM [2] was > 9.9 µL/min/mg and the hepatocyte CLint at 0.5 µM [3] was 8.6 µL/min/1e6 cells. The hepatocyte CLint at 0.5 µM [4] was 65 µL/min/1e6 cells, the Ct [5] was 99.1 ng/mL and the Cp [6] was 1450 ng/mL. It also gave a Kp at 0.5 h [7] of 0.1, a Kp uu at 0.5 h [8] of 0.85 and a Papp A→B at 3 µM (BCRP [9]) of 15.8 ×10⁻⁶ cm/s. The Papp B→A at 3 µM (BCRP [10]) was 19.4 ×10⁻⁶ cm/s, the Papp A→B at 3 µM (MDR1 (P-gp) [11]) was 13 ×10⁻⁶ cm/s and the Papp B→A at 3 µM (MDR1 (P-gp) [12]) was 16.3 ×10⁻⁶ cm/s. The Papp A→B at 3 µM (BCRP [13]) was 15.9 ×10⁻⁶ cm/s, the Papp B→A at 3 µM (BCRP [14]) was 16.5 ×10⁻⁶ cm/s and the Papp A→B at 3 µM (MDR1 (P-gp) [15]) was 12.9 ×10⁻⁶ cm/s. It also gave a Papp B→A at 3 µM (MDR1 (P-gp) [16]) of 15 ×10⁻⁶ cm/s and a half-life [17] of 18 min.

In the case of `O=C(O)/C=C1\CCCc2ccccc2C1O` (stereo unspecified), the Ki [18] is reported as 340 nM, the Ki [19] is reported as 590 nM and the Ki [20] is reported as 3900 nM. It also gave a Kd [21] of 8900 nM, a ΔTm [22] of 16.7 °C and a Kdiss [23] of 0.75 s⁻¹.

`O=C(O)/C=C1\CCCc2cc(F)ccc2C1O` (stereo unspecified) gave a Ki [18] of 110 nM.

With `O=C(O)/C=C1\CCCc2cc(/C=C/c3ccccc3)ccc2C1O` (stereo unspecified) the Ki [18] was 40 nM.

Molecule `O=C(O)/C=C1\CCCc2c(/C=C/c3c(Cl)cccc3Cl)cccc2C1O` (stereo unspecified) has a Ki [18] of 110 nM.

With `O=C(O)/C=C1\CCCc2c(/C=C/c3ccccc3)cccc2C1O` (stereo unspecified) the Ki [18] was 14000 nM, the Ki [19] was 81 nM and the Activity [24] was “Active”.

For `O=C(O)/C=C1\CCCc2c(Br)cccc2C1O` (stereo unspecified), the Ki [18] was 230 nM.

For `O=C(O)/C=C1\CCCc2c(CCc3ccccc3)cccc2C1O` (stereo unspecified), the Ki [18] was 56 nM.

Work on `O=C(O)/C=C1\CCCc2ccc(-c3ccccc3)cc2C1O` (stereo unspecified) yielded a Ki [18] of 14000 nM.

With `O=C(O)C1=CC(O)CC1` (stereo unspecified) the Ki [18] was 160 nM, the Ki [19] was 130 nM and the Ki [20] was 1800 nM.

In the case of `Cc1ccc2c(c1)CCC/C(=C\C(=O)O)C2O` (stereo unspecified), the Ki [18] is reported as 320 nM.
